The assay concerns the target T1, human PD-1 / PD-L1-Ig binding on Jurkat cell line over-expressing human PD-1 (Jurkat-PD-1) (Homo sapiens, UniProt Q15116).
T1 construct: expressed in transfected cells; host or cells: Jurkat
The assay is described as follows: Jurkat-PD-1 Cell Binding High-Content Screening Assay (CBA). Conditions: Jurkat-PD-1 cells, PE-labeled PD-L1-Ig 20 nM final; read-out: Jurkat HPD1_PDL1 IC50. The assay is classed as cell-based. The method, boiled down:
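Jurkat-hPD-1 cells in DMEM with 10% fetal calf serum receive test compound and are held at 37° C for 2 h. PE-labeled PD-L1-Ig is added at 20 nM final and left for 1 hour. Cells are then fixed and Hoechst-stained, and binding is measured by imaging.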

The structures appear in SMILES notation. Where a SMILES comes first, the peptide text is derived from it. Bridges are numbered along the chain shown (N, C = ends). [ ]: non-standard residue; d: D form. The star is where a group is joined. ξ: configuration not given here. Phe(4-COOH) = N[C@@H](Cc1ccc(C(=O)O)cc1)C(=O)O; Bip = N[C@@H](Cc1ccc(-c2ccccc2)cc1)C(=O)O; Phe(3-Me) = Cc1cccc(C[C@H](N)C(=O)O)c1; Val(3-OH) = CC(C)(O)[C@H](N)C(=O)O; 4Pal = N[C@@H](Cc1ccncc1)C(=O)O; Cha = N[C@@H](CC1CCCCC1)C(=O)O; Cit = NC(=O)NCCC[C@H](N)C(=O)O; Thr(3ξ) = CC(O)[C@H](N)C(=O)O; Carboxymethyl = O=C(O)C*; Nle = CCCC[C@H](N)C(=O)O; Orn = NCCC[C@H](N)C(=O)O; Pra = C#CC[C@H](N)C(=O)O; Dab = NCC[C@H](N)C(=O)O; Dap = NC[C@H](N)C(=O)O

In general, IC50 refers to the point on the concentration scale where inhibition reaches its midpoint.

T1 sequence (Q15116 25-288): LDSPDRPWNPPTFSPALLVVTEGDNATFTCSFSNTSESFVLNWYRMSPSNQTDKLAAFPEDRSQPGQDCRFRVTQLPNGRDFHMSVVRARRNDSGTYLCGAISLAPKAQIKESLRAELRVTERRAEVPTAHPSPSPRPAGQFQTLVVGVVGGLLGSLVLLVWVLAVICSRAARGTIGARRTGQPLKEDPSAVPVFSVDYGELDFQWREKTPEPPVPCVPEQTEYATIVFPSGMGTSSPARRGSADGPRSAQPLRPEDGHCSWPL

In the case of `CC(C)C[C@H]1NC(=O)[C@H](CCCN)NC(=O)[C@H](CCC(=O)O)NC(=O)[C@H](Cc2ccc(-c3ccccc3)cc2)NC(=O)[C@H](C(C)C)NC(=O)[C@H](Cc2c[nH]c3ccccc23)NC(=O)[C@H](CCC(=O)O)NC(=O)[C@H](Cc2ccc(OCC(=O)O)cc2)NC(=O)[C@H](CN)NC(=O)CSC[C@@H](C(=O)N[C@@H](C)C(N)=O)NC(=O)[C@H]([C@@H](C)O)NC(=O)[C@H](C(C)C)NC(=O)[C@H](CC2CCCCC2)NC(=O)[C@H](CCN)NC1=O` [Compound 2198] ({CH2CO}-[Dap]Y(Carboxymethyl)EWV[Bip]E[Orn][dL][Dab][Cha]VTCA-NH2; thioether N-14), the IC50 was found to be 0.803 µM.

Consider `Cc1cccc(C[C@@H]2NC(=O)[C@H](CC(=O)O)NC(=O)[C@H](Cc3ccc(OCC(=O)O)cc3)NC(=O)[C@H](CN)NC(=O)CSC[C@@H](C(=O)N[C@@H](C)C(=O)O)NC(=O)[C@H]([C@@H](C)O)NC(=O)[C@H](C(C)C)NC(=O)[C@H](CC3CCCCC3)NC(=O)[C@H](CCN)NC(=O)[C@@H](CC(C)C)NC(=O)[C@H](CCCN)NC(=O)[C@H](CCCNC(N)=O)NC(=O)[C@H](Cc3ccc(-c4ccccc4)cc3)NC(=O)[C@H](C(C)C)NC2=O)c1` [Compound 1300], for which the IC50 amounted to 0.005 µM.

As for `C#CC[C@H](NC(=O)[C@H](CCN)NC(=O)[C@@H]1CSCC(=O)N[C@@H](CCN)C(=O)N[C@@H](Cc2ccc(C(=O)O)cc2)C(=O)N[C@@H](CC(=O)O)C(=O)N[C@@H](Cc2cccc(C)c2)C(=O)N[C@@H](Cc2ccc(C(=O)O)cc2)C(=O)N[C@@H](Cc2ccc(-c3ccccc3)cc2)C(=O)N[C@@H](Cc2ccc(C(=O)O)cc2)C(=O)N[C@@H](CCCN)C(=O)N[C@H](CC(C)C)C(=O)N[C@@H](CCN)C(=O)N[C@@H](CC2CCCCC2)C(=O)N[C@@H](C(C)(C)O)C(=O)N[C@@H](CO)C(=O)N1)C(N)=O` [Compound 2088] ({CH2CO}-[Dab][Phe(4-COOH)]D[Phe(3-Me)][Phe(4-COOH)][Bip][Phe(4-COOH)][Orn][dL][Dab][Cha][Val(3-OH)]SC[Dab][Pra]-NH2; thioether N-14), the IC50 was 0.0044 µM.

For `CC(C)C[C@H]1NC(=O)[C@H](CCCN)NC(=O)[C@H](CCCNC(N)=O)NC(=O)[C@H](Cc2ccc(-c3ccccc3)cc2)NC(=O)[C@H](C(C)C)NC(=O)[C@H](Cc2c[nH]c3ccccc23)NC(=O)[C@H](CC(=O)O)NC(=O)[C@H](Cc2ccc(O)cc2)NC(=O)[C@H](CC(N)=O)NC(=O)CSC[C@@H](C(=O)N[C@@H](C)C(N)=O)NC(=O)[C@H]([C@@H](C)O)NC(=O)[C@H](C(C)C)NC(=O)[C@H](CC2CCCCC2)NC(=O)[C@H](CCN)NC1=O` [Compound 1161] ({CH2CO}-NYDWV[Bip][Cit][Orn][dL][Dab][Cha]VTCA-NH2; thioether N-14), the concentration for half-maximal inhibition (IC50) came out at 0.0161 µM.

Regarding `CCC(C)[C@@H]1NC(=O)[C@H](Cc2ccc(-c3ccccc3)cc2)NC(=O)[C@H](C(C)C)NC(=O)[C@H](Cc2ccc(F)c(C)c2)NC(=O)[C@H](CC(=O)O)NC(=O)[C@H](Cc2ccc(OCC(=O)O)cc2)NC(=O)[C@H](CN)NC(=O)CSC[C@@H](C(=O)N[C@@H](C)C(N)=O)NC(=O)[C@H]([C@@H](C)O)NC(=O)[C@H](C(C)C)NC(=O)[C@H](CC2CCCCC2)NC(=O)[C@H](CCN)NC(=O)[C@@H](CC(C)C)NC(=O)[C@H](CCCN)NC1=O` (stereo partly drawn) [Compound 2244], the half-inhibitory concentration (IC50) came to 0.0329 µM.

Regarding `Cc1cccc(C[C@@H]2NC(=O)[C@H](CC(=O)O)NC(=O)[C@H](Cc3ccncc3)NC(=O)[C@H](Cc3ccc(OCC(=O)O)cc3)NC(=O)CSC[C@@H](C(=O)N[C@@H](C)C(N)=O)NC(=O)[C@H]([C@@H](C)O)NC(=O)[C@H](C(C)C)NC(=O)[C@H](CC(C)C)NC(=O)[C@H](CCN)NC(=O)[C@@H](CC(C)C)NC(=O)[C@H](CCCN)NC(=O)[C@H](CCCNC(N)=O)NC(=O)[C@H](Cc3ccc(-c4ccccc4)cc3)NC(=O)[C@H](C(C)C)NC2=O)c1` [Compound 1324] ({CH2CO}-Y(Carboxymethyl)[4Pal]D[Phe(3-Me)]V[Bip][Cit][Orn][dL][Dab]LVTCA-NH2; thioether N-14), the IC50 amounted to 0.0155 µM.

Turning to `CC(C)C[C@H]1NC(=O)[C@H](CCCN)NC(=O)[C@H](CCC(=O)O)NC(=O)[C@H](Cc2ccc(-c3ccccc3)cc2)NC(=O)[C@H](C(C)C)NC(=O)[C@H](Cc2cccc(Cl)c2)NC(=O)[C@H](CC(=O)O)NC(=O)[C@H](Cc2ccc(OCC(=O)O)cc2)NC(=O)[C@H](Cc2ccc(OCC(=O)O)cc2)NC(=O)CSC[C@@H](C(=O)N[C@@H](C)C(N)=O)NC(=O)[C@H]([C@@H](C)O)NC(=O)[C@H](C(C)C)NC(=O)[C@H](CC2CCCCC2)NC(=O)[C@H](CCN)NC1=O` [Compound 1490], the IC50 amounted to 0.0202 µM.

As to `CCCC[C@@H]1NC(=O)[C@H](CC(N)=O)NC(=O)[C@@H](CC(C)C)NC(=O)[C@H](CN)NC(=O)[C@H](C(C)C)NC(=O)[C@H](Cc2ccc(-c3ccccc3)cc2)NC(=O)[C@H](CC(C)C)NC(=O)[C@H](Cc2c[nH]c3ccccc23)NC(=O)[C@H](CC(=O)O)NC(=O)[C@H](Cc2ccc(OCC(=O)O)cc2)NC(=O)[C@H](CN)NC(=O)CSC[C@@H](C(=O)NCC(N)=O)NC(=O)[C@H](CO)NC(=O)[C@H](C(C)C)NC1=O` [Compound 1399] ({CH2CO}-[Dap]Y(Carboxymethyl)DWL[Bip]V[Dap][dL]N[Nle]VSCG-NH2; thioether N-14), the IC50 was determined as 0.0161 µM.

In the case of `CC(C)C[C@H]1NC(=O)[C@H](CCCN)NC(=O)[C@H](C(C)C)NC(=O)[C@H](Cc2ccc(-c3ccccc3)cc2)NC(=O)[C@H](C(C)C)NC(=O)[C@H](Cc2c[nH]c3ccccc23)NC(=O)[C@H](CC(=O)O)NC(=O)[C@H](Cc2ccc(O)cc2)NC(=O)[C@H](Cc2ccc(OCC(=O)O)cc2)NC(=O)CSC[C@@H](C(=O)N[C@@H](C)C(N)=O)NC(=O)[C@H]([C@@H](C)O)NC(=O)[C@H](C(C)C)NC(=O)[C@H](CC2CCCCC2)NC(=O)[C@H](CCN)NC1=O` [Compound 1173], the 50% inhibitory concentration (IC50) was 0.0097 µM.

`CC(C)C[C@H]1NC(=O)[C@H](CCCN)NC(=O)[C@H](C(C)C)NC(=O)[C@H](Cc2ccc(-c3ccccc3)cc2)NC(=O)[C@H](C(C)C)NC(=O)[C@H](Cc2c[nH]c3ccccc23)NC(=O)[C@H](CC(=O)O)NC(=O)[C@H](Cc2ccc(OCC(=O)O)cc2)NC(=O)[C@H](CN)NC(=O)CSC[C@@H](C(=O)N[C@@H](C)C(N)=O)NC(=O)[C@H]([C@@H](C)O)NC(=O)[C@H](C(C)C)NC(=O)[C@H](Cc2ccc(O)cc2)NC(=O)[C@H](CCN)NC1=O` [Compound 1681] ({CH2CO}-[Dap]Y(Carboxymethyl)DWV[Bip]V[Orn][dL][Dab]YVTCA-NH2; thioether N-14): the IC50 came to 0.0489 µM.

On to `CC(C)C[C@H]1NC(=O)[C@H](CCCN)NC(=O)[C@H](C(C)O)NC(=O)[C@H](Cc2ccc(-c3ccccc3)cc2)NC(=O)[C@H](C(C)C)NC(=O)[C@H](Cc2c[nH]c3ccccc23)NC(=O)[C@H](CC(=O)O)NC(=O)[C@H](Cc2ccc(OCC(=O)O)cc2)NC(=O)[C@H](CN)NC(=O)CSC[C@@H](C(=O)N[C@@H](CC(N)=O)C(N)=O)NC(=O)[C@H](C(C)O)NC(=O)[C@H](C(C)C)NC(=O)[C@H](CC2CCCCC2)NC(=O)[C@H](Cc2c[nH]cn2)NC1=O` (stereo partly drawn) [Compound 2552] ({CH2CO}-[Dap]Y(Carboxymethyl)DWV[Bip][Thr(3ξ)][Orn][dL]H[Cha]V[Thr(3ξ)]CN-NH2; thioether N-14), for which the IC50 was determined as 0.0286 µM.

Take `CC(C)C[C@@H]1NC(=O)[C@H](CCN)NC(=O)[C@@H](CC(C)C)NC(=O)[C@H](CCCN)NC(=O)[C@H](CCCNC(N)=O)NC(=O)[C@H](Cc2ccc(-c3ccccc3)cc2)NC(=O)[C@H](C(C)C)NC(=O)[C@H](Cc2c[nH]c3ccccc23)NC(=O)[C@H](CC(=O)O)NC(=O)[C@H](Cc2ccc(O)cc2)NC(=O)[C@H](CC(N)=O)NC(=O)CSC[C@@H](C(=O)N[C@@H](C)C(N)=O)NC(=O)[C@H]([C@@H](C)O)NC(=O)[C@H](C(C)C)NC1=O` [Compound 1017] ({CH2CO}-NYDWV[Bip][Cit][Orn][dL][Dab]LVTCA-NH2; thioether N-14): the IC50 came to 0.0203 µM.

Turning to `CC(C)C[C@H]1NC(=O)[C@H](CCCN)NC(=O)[C@H](C(C)C)NC(=O)[C@H](Cc2ccc(-c3ccccc3)cc2)NC(=O)[C@H](C(C)C)NC(=O)[C@H](Cc2c[nH]c3ccccc23)NC(=O)[C@H](CC(=O)O)NC(=O)[C@H](Cc2ccc(OCC(=O)O)cc2)NC(=O)[C@H](CN)NC(=O)CSC[C@@H](C(=O)N[C@@H](C)C(N)=O)NC(=O)[C@H]([C@@H](C)O)NC(=O)[C@H](C(C)C)NC(=O)[C@H](CC2CCCCC2)NC(=O)[C@H]([C@@H](C)O)NC1=O` [Compound 1524] ({CH2CO}-[Dap]Y(Carboxymethyl)DWV[Bip]V[Orn][dL]T[Cha]VTCA-NH2; thioether N-14), the 50% inhibitory concentration (IC50) is 0.0092 µM.

As for `CC(C)C[C@@H]1NC(=O)[C@H](Cc2c[nH]c3ccccc23)NC(=O)[C@H](CC(=O)O)NC(=O)[C@H](Cc2ccc(O)cc2)NC(=O)[C@H](Cc2ccccc2)NC(=O)CSC[C@@H](C(=O)NCC(N)=O)NC(=O)[C@H](CO)NC(=O)[C@H](C(C)C)NC(=O)[C@H](CC(C)C)NC(=O)[C@H](CC(N)=O)NC(=O)[C@@H](CC(C)C)NC(=O)[C@H](CN)NC(=O)[C@H](C(C)C)NC(=O)[C@H](Cc2ccc(-c3ccccc3)cc2)NC1=O` [Compound 1274] ({CH2CO}-FYDWL[Bip]V[Dap][dL]NLVSCG-NH2; thioether N-14), the IC50 is 0.0384 µM.

Turning to `CC(C)C[C@H]1NC(=O)[C@H](CCCN)NC(=O)[C@H](CCCNC(N)=O)NC(=O)[C@H](Cc2ccc(-c3ccccc3)cc2)NC(=O)[C@H](C(C)C)NC(=O)[C@H](Cc2c[nH]c3ccccc23)NC(=O)[C@H](CC(=O)O)NC(=O)[C@H](Cc2ccc3ccncc3c2)NC(=O)[C@H](CN)NC(=O)CSC[C@@H](C(=O)N[C@@H](C)C(N)=O)NC(=O)[C@H]([C@@H](C)O)NC(=O)[C@H](C(C)C)NC(=O)[C@H](CC2CCCCC2)NC(=O)[C@H](CCN)NC1=O` [Compound 2117], the half-maximal inhibitory concentration (IC50) was determined as 0.0187 µM.
